Source: patent US9498423B2, “Synergistic selenopeptide formulations for the protection of dermal papilla cells” (Sami Labs Limited, priority 2012, dated 2016)

Test system: Human dermal papilla cells
Test: UVB stress protection of dermal papilla cells, cell viability by Neutral Red Uptake staining
Format: cell-based
Details: UVB 0.432 J/cm^2; Table 1
Protocol: Human dermal papilla cells were plated into a 96 well flat bottomed clear micro plate at a seeding density of 5000 cells per well. The 24 hour monolayer of cells was exposed to UVB dosages ranging from 0.0072 J/cm^2 to 1.0 J/cm^2 (stress signal) with or without sample (protective formulations) treatment. After exposure, the cells were incubated in a CO2 incubator for 48 hours and developed by NRU (Neutral Red Uptake) staining techniques to analyze cell viability. The absorbance due to viable cells is read at 492 nm in a micro plate reader.

## C[Se]CC[C@H](NC(=O)CC[C@H](N)C(=O)O)C(=O)O [γ-L-glutamyl-L-Selenomethionine]
  Protection of dermal papilla cells, UVB irradiation level 0.432 J/cm^2: No protection
